Assay results: ChEMBL document CHEMBL6103629 (J Med Chem, 2025); call rule not given here

Columns and labels:
[1] = Drug distribution in Sprague-Dawley rat liver at 5 mg/kg, IG administrated as single dose measured after 0.5 hrs by LC-MS/MS analysis; format: ADME, organism-based; details: in vivo, po
[2] = Drug metabolism in Sprague-Dawley rat liver cells at 2 uM incubated upto 120 mins by LC-MS/MS analysis; format: ADME, cell-based; details: 2 h
NCI-H1703 [3] = assay: Antitumor activity against human NCI-H1703 cells xenografted in female Balb/c nude mouse assessed as tumor growth inhibition at 40 mg/kg QD, po measured every 3 days for 28 days by vernier caliper based analysis relative to control; format: functional; details: NCI-H1703, 672 h, time 28 day, read-out: TGI
Cytochrome P450 1A2 = Cytochrome P450 1A2 (Homo sapiens, UniProt P05177); assay: Inhibition of CYP1A2 in human liver microsomes in the presence of NADPH incubated for 60 mins by LC-MS/MS analysis; format: ADME, Microsome
[4] = Drug accumulation in female Beagle dogs at 5 mg/kg, IG measured for 7 days by LC-MS/MS analysis; format: ADME, organism-based, Canis lupus familiaris; details: dog, in vivo, po, 168 h, time 7 day
[5] = Drug excretion in Sprague-Dawley rat feces at 5 mg/kg, IG administrated for 48 hrs by LC-MS/MS analysis; format: ADME, organism-based; details: in vivo, po
[6] = Induction of CYP3A4 mRNA expression in human primary hepatocyte isolated from DZM donor at 0.1 to 10 uM incubated for 72 hrs by real-time PCR analysis; format: ADME, cell-based; details: hepatocytes, dose 0.1-10 µM
[7] = Drug distribution in Sprague-Dawley rat stomach at 5 mg/kg, IG administrated as single dose measured after 0.5 hrs by LC-MS/MS analysis; format: ADME, organism-based; details: in vivo, po
[8] = Drug distribution in Sprague-Dawley rat small intestine at 5 mg/kg, IG administrated as single dose measured after 0.5 hrs by LC-MS/MS analysis; format: ADME, organism-based; details: in vivo, po
[9] = Permeability across basolateral to apical side in human MDCK-MDR1 cells at 0.1 to 10 uM incubated for 120 mins by LC-MS/MS analysis; format: ADME, cell-based, Canis lupus familiaris; details: dog, mdck-mdr1, 2 h, dose 0.1-10 µM
[10] = Stability in human plasma assessed as half life by LC-MS/MS analysis; format: ADME, cell-free
[11] = molecular target: Phosphatidylinositol 4,5-bisphosphate 3-kinase catalytic subunit alpha isoform (Homo sapiens, UniProt P42336); assay: Inhibition of PI3Kalpha (unknown origin) preincubated for 15 mins and measured after 60 mins by Z-LYTE screening
LoVo [12] = assay: Induction of apoptosis in human LoVo cells assessed as viable cells at 1 uM incubated for 24 hrs by Annexin-V-FITC-PI staining based flow cytometric analysis (reference value: 72.1 %); format: functional; details: read-out: Activity
LoVo [13] = assay: Induction of apoptosis in human LoVo cells assessed as viable cells at 3 uM incubated for 24 hrs by Annexin-V-FITC-PI staining based flow cytometric analysis (reference value: 72.1 %); format: functional; details: read-out: Activity
[14] = Drug metabolism in human plasma by LC-MS/MS analysis; format: ADME, cell-free
Hepatocyte [15] = assay: Cytotoxicity against human primary hepatocytes isolated from DZM donor at 0.1 to 10 uM incubated for 72 hrs by cytotox-glo assay; format: toxicity, cell-based; details: dose 0.1-10 µM
[16] = Toxicity in Beagle dogs assessed as effect on respiratory system at 5 to 20 mg/kg, po administrated as single dose upto 24 hrs; format: organism-based, Canis lupus familiaris; details: dog, in vivo, dose 5-20 mg/kg
[17] = Drug metabolism in CD-1 mouse plasma by LC-MS/MS analysis; format: ADME, cell-free; details: 5 h, 1 µM
NCI-H1703 [18] = assay: Antitumor activity against human NCI-H1703 cells xenografted in female Balb/c nude mouse assessed as tumor growth inhibition at 40 mg/kg QD, po administered as 3 days on and 4 days off schedule for 4 weeks relative to control; format: functional; details: NCI-H1703, 672 h, time 28 day, read-out: TGI
[19] = Drug accumulation in male Beagle dogs at 5 mg/kg, IG measured for 7 days by LC-MS/MS analysis; format: ADME, organism-based, Canis lupus familiaris; details: dog, in vivo, po, 168 h, time 7 day
CYP2B6 = CYP2B6 (Homo sapiens, UniProt P20813); assay: Inhibition of recombinant human CYP2B6 assessed as residual activity at 1 uM in the presence of NADPH incubated for 60 mins by LC-MS/MS analysis relative to control; format: ADME; details: read-out: Activity
CYP2C8 = CYP2C8 (Homo sapiens, UniProt P10632); assay: Inhibition of recombinant human CYP2C8 assessed as residual activity at 1 uM in the presence of NADPH incubated for 60 mins by LC-MS/MS analysis relative to control; format: ADME; details: read-out: Activity
Cytochrome P450 2C9 = Cytochrome P450 2C9 (Homo sapiens, UniProt P11712); assay: Inhibition of CYP2C9 in human liver microsomes in the presence of NADPH incubated for 60 mins by LC-MS/MS analysis; format: ADME, Microsome
[20] = Drug accumulation in female Sprague-Dawley rat at 5 mg/kg, IG measured for 7 days by LC-MS/MS analysis; format: ADME, organism-based; details: in vivo, po, 168 h, time 7 day
[21] = Lipophilicity, logP of compound; format: physicochemical; details: octanol/water
[22] = Drug metabolism in human liver cells at 2 uM incubated upto 120 mins by LC-MS/MS analysis; format: ADME, cell-based; details: 2 h
[23] = Permeability across apical to basolateral side in human Caco-2 cells at 0.1 to 10 uM incubated for 120 mins by LC-MS/MS analysis; format: ADME, cell-based; details: caco-2, 2 h, dose 0.1-10 µM
[24] = Stability in Sprague-Dawley rat plasma assessed as half life by LC-MS/MS analysis; format: ADME, cell-free
CYP1A2 = CYP1A2 (Homo sapiens, UniProt P05177); assay: Inhibition of recombinant human CYP1A2 assessed as residual activity at 1 uM in the presence of NADPH incubated for 60 mins by LC-MS/MS analysis relative to control; format: ADME; details: read-out: Activity
[25] = Induction of CYP1A2 mRNA expression in human primary hepatocyte isolated from DZM donor at 0.1 to 10 uM incubated for 72 hrs by real-time PCR analysis; format: ADME, cell-based; details: hepatocytes, dose 0.1-10 µM
Cytochrome P450 2B6 = Cytochrome P450 2B6 (Homo sapiens, UniProt P20813); assay: Inhibition of CYP2B6 in human liver microsomes in the presence of NADPH incubated for 60 mins by LC-MS/MS analysis; format: ADME, Microsome
[26] = Induction of CYP3A4 mRNA expression in human primary hepatocyte isolated from RAS donor at 0.1 to 10 uM incubated for 72 hrs by real-time PCR analysis; format: ADME, cell-based; details: hepatocytes, dose 0.1-10 µM
Hepatocyte [27] = assay: Cytotoxicity against human primary hepatocytes isolated from YND donor at 0.1 to 10 uM incubated for 72 hrs by cytotox-glo assay; format: toxicity, cell-based; details: dose 0.1-10 µM
LoVo [28] = assay: Antitumor activity against human LoVo cells xenografted in female Balb/c nude mouse assessed as tumor growth inhibition at 60 mg/kg QD, po measured every 3 days for 25 days relative to control; format: functional; details: 600 h, time 25 day, read-out: TGI
CYP2D6 = CYP2D6 (Homo sapiens, UniProt P10635); assay: Inhibition of recombinant human CYP2D6 assessed as residual activity at 1 uM in the presence of NADPH incubated for 60 mins by LC-MS/MS analysis relative to control; format: ADME; details: read-out: Activity
[29] = Dissociation constant, pKa of compound; format: physicochemical
JeKo-1 = assay: Antitumor activity against human JeKo-1 cells xenografted in female CB17 SCID mouse assessed as tumor growth inhibition at 30 mg/kg BID, po measured every 2 days for 24 days relative to control; format: functional; details: JeKo-1, 576 h, time 24 day, read-out: TGI

Sequence of CYP2B6 (P20813 whole entry): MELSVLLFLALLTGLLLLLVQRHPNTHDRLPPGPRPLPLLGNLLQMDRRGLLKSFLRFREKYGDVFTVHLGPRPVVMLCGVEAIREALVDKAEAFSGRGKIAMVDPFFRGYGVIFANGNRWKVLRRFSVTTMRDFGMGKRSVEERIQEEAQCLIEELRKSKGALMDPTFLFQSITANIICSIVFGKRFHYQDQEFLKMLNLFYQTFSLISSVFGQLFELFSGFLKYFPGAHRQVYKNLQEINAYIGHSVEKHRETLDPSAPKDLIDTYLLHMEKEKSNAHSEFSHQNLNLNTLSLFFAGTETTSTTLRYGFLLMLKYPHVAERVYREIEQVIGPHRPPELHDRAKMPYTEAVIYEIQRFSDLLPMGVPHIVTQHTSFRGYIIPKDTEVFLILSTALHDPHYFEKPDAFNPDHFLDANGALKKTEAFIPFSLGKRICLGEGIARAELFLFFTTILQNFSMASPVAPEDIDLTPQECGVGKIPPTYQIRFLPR
Sequence of Cytochrome P450 2B6 (P20813 whole entry): as above
Sequence of Cytochrome P450 1A2 (P05177 whole entry): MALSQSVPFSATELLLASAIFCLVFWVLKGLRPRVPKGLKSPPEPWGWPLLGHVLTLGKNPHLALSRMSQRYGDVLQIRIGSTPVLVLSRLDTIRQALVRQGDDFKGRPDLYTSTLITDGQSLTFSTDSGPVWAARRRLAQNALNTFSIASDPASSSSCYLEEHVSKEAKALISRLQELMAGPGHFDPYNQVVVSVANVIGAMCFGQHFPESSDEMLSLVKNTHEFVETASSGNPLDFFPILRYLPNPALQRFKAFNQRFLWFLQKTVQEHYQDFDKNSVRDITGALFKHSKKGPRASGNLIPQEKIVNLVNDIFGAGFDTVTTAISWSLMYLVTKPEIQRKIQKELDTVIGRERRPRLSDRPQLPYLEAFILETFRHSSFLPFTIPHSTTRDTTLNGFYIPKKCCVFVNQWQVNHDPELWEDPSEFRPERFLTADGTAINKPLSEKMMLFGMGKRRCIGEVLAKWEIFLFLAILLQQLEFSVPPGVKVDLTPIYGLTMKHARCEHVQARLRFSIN
Sequence of CYP1A2 (P05177 whole entry): as above
Sequence of CYP2C8 (P10632 whole entry): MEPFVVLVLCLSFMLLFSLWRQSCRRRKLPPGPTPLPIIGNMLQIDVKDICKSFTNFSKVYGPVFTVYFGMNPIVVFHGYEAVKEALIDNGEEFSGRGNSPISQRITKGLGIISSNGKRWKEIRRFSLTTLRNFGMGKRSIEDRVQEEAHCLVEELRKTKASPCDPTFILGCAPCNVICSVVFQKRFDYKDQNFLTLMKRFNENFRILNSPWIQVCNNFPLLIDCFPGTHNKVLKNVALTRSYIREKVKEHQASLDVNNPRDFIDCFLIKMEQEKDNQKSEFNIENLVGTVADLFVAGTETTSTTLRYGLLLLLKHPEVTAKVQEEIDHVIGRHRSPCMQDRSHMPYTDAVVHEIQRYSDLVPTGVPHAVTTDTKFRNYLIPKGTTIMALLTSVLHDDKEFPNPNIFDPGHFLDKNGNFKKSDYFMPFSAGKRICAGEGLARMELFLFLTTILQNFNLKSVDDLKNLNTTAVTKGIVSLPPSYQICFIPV
Sequence of Phosphatidylinositol 4,5-bisphosphate 3-kinase catalytic subunit alpha isoform (P42336 whole entry, canonical isoform): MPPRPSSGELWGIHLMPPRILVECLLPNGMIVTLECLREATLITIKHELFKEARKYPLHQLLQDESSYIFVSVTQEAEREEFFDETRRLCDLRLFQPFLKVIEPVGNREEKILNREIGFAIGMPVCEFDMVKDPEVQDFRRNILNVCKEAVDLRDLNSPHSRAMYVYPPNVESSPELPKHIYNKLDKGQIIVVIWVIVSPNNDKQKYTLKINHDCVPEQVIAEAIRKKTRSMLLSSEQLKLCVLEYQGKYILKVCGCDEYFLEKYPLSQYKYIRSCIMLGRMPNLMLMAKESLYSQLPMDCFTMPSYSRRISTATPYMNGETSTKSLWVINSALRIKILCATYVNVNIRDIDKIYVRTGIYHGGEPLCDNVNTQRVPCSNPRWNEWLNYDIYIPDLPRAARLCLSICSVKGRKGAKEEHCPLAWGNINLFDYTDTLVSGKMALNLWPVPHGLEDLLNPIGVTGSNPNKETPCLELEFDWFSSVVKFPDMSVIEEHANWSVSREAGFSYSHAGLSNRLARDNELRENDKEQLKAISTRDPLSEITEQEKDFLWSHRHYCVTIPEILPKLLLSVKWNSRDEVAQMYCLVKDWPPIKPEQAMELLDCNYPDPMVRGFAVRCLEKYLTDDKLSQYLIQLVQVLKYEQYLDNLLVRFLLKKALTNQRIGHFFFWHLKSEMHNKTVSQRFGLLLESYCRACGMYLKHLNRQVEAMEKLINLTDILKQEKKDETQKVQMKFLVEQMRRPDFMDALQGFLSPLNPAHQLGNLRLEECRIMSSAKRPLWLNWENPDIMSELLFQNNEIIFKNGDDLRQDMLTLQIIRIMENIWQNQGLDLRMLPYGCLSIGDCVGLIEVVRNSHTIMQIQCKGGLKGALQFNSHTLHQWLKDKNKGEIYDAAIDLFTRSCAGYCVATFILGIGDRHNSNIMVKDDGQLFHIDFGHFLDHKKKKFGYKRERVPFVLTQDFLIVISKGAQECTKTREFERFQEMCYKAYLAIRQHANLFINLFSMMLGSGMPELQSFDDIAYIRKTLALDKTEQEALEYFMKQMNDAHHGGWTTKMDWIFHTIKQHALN
Sequence of CYP2D6 (P10635 whole entry): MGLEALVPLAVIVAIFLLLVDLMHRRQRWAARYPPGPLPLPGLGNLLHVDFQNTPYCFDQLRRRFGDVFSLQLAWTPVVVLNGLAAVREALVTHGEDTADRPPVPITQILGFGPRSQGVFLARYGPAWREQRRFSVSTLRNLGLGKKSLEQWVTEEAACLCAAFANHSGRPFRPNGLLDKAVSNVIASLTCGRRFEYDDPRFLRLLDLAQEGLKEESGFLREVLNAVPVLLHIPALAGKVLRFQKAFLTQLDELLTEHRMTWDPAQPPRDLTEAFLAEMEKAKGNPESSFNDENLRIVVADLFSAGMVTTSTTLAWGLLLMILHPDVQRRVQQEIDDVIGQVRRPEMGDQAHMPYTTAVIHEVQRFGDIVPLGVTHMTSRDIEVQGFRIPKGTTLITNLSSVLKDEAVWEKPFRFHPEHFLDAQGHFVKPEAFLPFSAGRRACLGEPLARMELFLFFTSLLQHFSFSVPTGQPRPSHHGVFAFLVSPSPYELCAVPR
Sequence of Cytochrome P450 2C9 (P11712 whole entry): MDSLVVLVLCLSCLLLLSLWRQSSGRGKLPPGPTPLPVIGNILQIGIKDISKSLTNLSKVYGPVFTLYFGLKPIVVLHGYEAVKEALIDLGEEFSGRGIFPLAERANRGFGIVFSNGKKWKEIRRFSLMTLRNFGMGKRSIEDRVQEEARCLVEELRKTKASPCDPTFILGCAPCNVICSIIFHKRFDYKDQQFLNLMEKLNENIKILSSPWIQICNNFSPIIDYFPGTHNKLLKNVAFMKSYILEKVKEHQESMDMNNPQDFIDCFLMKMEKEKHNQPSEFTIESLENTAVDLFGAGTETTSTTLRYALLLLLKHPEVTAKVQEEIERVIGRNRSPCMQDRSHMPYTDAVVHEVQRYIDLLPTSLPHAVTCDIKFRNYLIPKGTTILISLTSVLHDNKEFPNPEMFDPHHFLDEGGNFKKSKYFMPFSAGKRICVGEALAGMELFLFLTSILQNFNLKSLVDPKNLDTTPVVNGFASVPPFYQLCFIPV

- Drug uptake [1]: Active
- Drug metabolism [2]: metabolite_detected
- IC50 (Cytochrome P450 1A2): > 100 µM
- Drug uptake [4]: Active
- Drug excretion [5]: Active
- Activity [6]: Active
- Drug uptake [7]: Active
- Drug uptake [8]: Active
- permeability [9]: Permeable
- half-life [10]: > 2 h
- IC50 [11]: 3.58 µM
- Drug metabolism [14]: metabolite_notdetected
- Drug metabolism [17]: metabolite_notdetected
- Drug uptake [19]: Active
- activity at 1 h, 1 µM (CYP2B6): 94.1%
- activity at 1 h, 1 µM (CYP2C8): 16.3%
- IC50 (Cytochrome P450 2C9): 32.8 µM
- Drug uptake [20]: Active
- logP [21]: 0.7
- Drug metabolism [22]: metabolite_detected
- permeability [23]: Permeable
- half-life [24]: > 2 h
- activity at 1 h, 1 µM (CYP1A2): 105%
- Activity [25]: Not_active
- IC50 (Cytochrome P450 2B6): > 100 µM
- Activity [26]: Active
- activity at 1 h, 1 µM (CYP2D6): 101%
- pKa [29]: 4.25
SMILES: Cc1nn(-c2cccnc2)c(C)c1-c1cc(N2CC3CCC(C2)O3)nc2c(-c3ccn[nH]3)cnn12.O=C(O)/C=C/C(=O)O
- inhibition in vivo at 40 mg/kg (NCI-H1703 [3]): 73.3%
- viability at 1 µM (LoVo [12]): 65%
- viability at 3 µM (LoVo [13]): 53.7%
- Activity (Hepatocyte [15]): Non-toxic
- Activity [16]: Non-toxic
- inhibition in vivo at 40 mg/kg (NCI-H1703 [18]): 36.2%
- Activity (Hepatocyte [27]): Non-toxic
- inhibition in vivo at 60 mg/kg (LoVo [28]): 67.4%
- inhibition in vivo at 30 mg/kg (JeKo-1): 96.4%
